Entries after “also recorded” stand apart in the source; their conditions may differ. Like-named read-outs stand apart in the source and are kept apart here. Peptide text beside a SMILES is read from it.
Columns and labels:
[1] = Plasma pharmacokinetics of EP-100 after IV infusion (phase I); type: in vivo, human; settings: for time at which C max was reached: majority of patients
Experimental: Blood samples (approximately 5 mL) were collected on Cycle 1 Day 1 at the following times: pre-dose, 10 and 20 min after start of EP-100 infusion, prior to completion of the infusion (−3 min) and 2, 15, 30, 60 (±2), 120 (±2) and 240 (±5) min after the infusion. Concentrations of EP-100 in EDTA-anticoagulated plasma were assayed by a validated HPLC-Mass Spectrometry method developed at Covance (Indianapolis, IN). EP-100 and the internal standard were extracted from human plasma by solid-phase extraction and analyzed using liquid chromatography with tandem mass spectrometric detection (MS/MS). The lower limit of quantitation for EP-100 in human plasma was 0.025 μg/mL, with linearity demonstrable to 5 μg/mL (upper limit of quantitation). Plasma PK analysis for EP-100 was performed using non-compartmental methods with Phoenix™ WinNonlin® version 6.1 or higher (Pharsight Corp., Mountain View, CA). Concentration–time profiles were constructed from the plasma sample data. Estimates of the area under the plasma concentration time curve (AUC) and slope of the terminal decay phase were used to calculate values of the following pharmacokinetic parameters: apparent terminal phase half-life (t 1/2), total body clearance (CL), apparent time of maximum concentration (T max) and apparent volume of distribution (V z). Means and standard deviations are presented where applicable. Phoenix™ WinNonlin® was used to identify the terminal linear phase of the concentration–time profile. The number of points chosen was determined based on the largest regression coefficient, R ^2, obtained. A minimum of three data points was used for determination of λ z, the elimination rate constant, determined by the slope of the terminal linear phase. The R ^2 had to be ≥0.8 to be included in the pharmacokinetic results. Summary statistics were prepared using Microsoft Excel 2007, and graphics were prepared with SigmaPlot™ version 11.2 (Systat Software Inc., Richmond, CA).

[2] = test system: pituitary gonadotropes (LHRH receptors); assay: Pharmacodynamics: serum FSH, LH and other pituitary hormones in patients; type: in vivo, human
Experimental: (§1) FSH and LH levels as well as testosterone in men and estradiol levels in women were obtained on Days 1, 8, 15 and 22 within 24 h prior to dosing. Testosterone and estradiol levels were measured on Day 1 only after Cycle 1 and at off study assessment. Blood was collected for circulating tumor cells (CTC) prior to dosing on Day 1 of the first cycle. Patients with positive CTC at baseline also had blood collected for CTC analysis prior to dosing on Day 1 of each subsequent cycle. Additional studies included plasma cortisol, adrenocorticotropin (ACTH), thyroxine (T4) and thyroid-stimulating hormone (TSH) and blood for tumor specific biomarker analysis (at investigator’s discretion), all obtained prior to Day 1 dosing with each cycle and at off study assessment. Samples for antidrug antibodies (ADA) were collected on Day 1 of Cycle 1 and then on Day 1 of every odd cycle.

[3] = Antidrug antibodies (anti-EP-100) ELISA in human serum; type: in vivo; settings: any dose level
Experimental: ADA were evaluated using an enzyme linked immunoassay validated for the detection of antibodies against EP-100 (anti-EP-100) (Icon plc, formerly Prevalere Life Sciences, LLC, Whitesboro, NY). Antibodies were produced in rabbits against the lytic peptide moiety of EP-100 (APC 338983). Antibodies against EP-100 in human serum were detected by coating 96-well microtiter plates with peptide 338983. At least two wells from each plate were coated with human IgG at 500 ng/mL as controls for the goat antihuman horseradish peroxidase detector. Rabbit anti-EP-100 polyclonal antibody was used as a positive control. The plates were washed, and a mixture of goat antirabbit HRP and goat antihuman HRP and tetramethylbenzidine peroxide substrate were added, and the color development determined in a spectrophotometer at 450 and 620 nm wavelength. The developed color was proportional to the amount of anti-EP-100 antibody in the sample. The anti-EP-100 antibodies in serum were quantified from a calibration curve prepared from the positive control and ranged from 500 to 32,000 ng/mL in 100 % human serum.

[4] = test system: advanced LHRH-receptor-expressing solid tumors; assay: Antitumor activity by RECIST version 1.1, tumor biomarkers and CTC; type: in vivo, human
Experimental: A history and physical examination were conducted pre-study and before every cycle. A complete blood count, serum electrolytes and chemistries were evaluated pre-study and then weekly. Tumor response or progression was assessed by imaging studies at baseline and after every 2 cycles. RECIST version 1.1 criteria were used to assess response.
as §1

[5] = test system: human cancer cell lines expressing the LHRH receptor; settings: cited from earlier work
From the text: EP-100 is a synthetic 28 amino acid consisting of the LHRH natural ligand joined to an 18 amino acid cationic α-helical lytic peptide (CLIP-71) without a linker. LHRH delivers the lytic peptide to cancer cells via specific binding to cell-surface LHRH receptors. Although EP-100’s exact mechanism of action has not yet been resolved, cancer cell membrane surface characteristics are believed to play a critical role.

[6] = test system: LHRH-receptor-positive human ovarian cancer cell line (OVCAR-3); design: method as in earlier work; settings: mice implanted with OVCAR-3, three weekly doses; cited from earlier work
[7] = test system: LHRH-receptor-positive cell lines; settings: in vitro; cited from earlier work
From the text: (§2) A phase 2 clinical trial te ...

[8] = test system: breast cancer model; settings: in vivo breast cancer model; ref Esperance, data on file; cited from earlier work
From the text: as §2

## CC(C)C[C@H](NC(=O)CNC(=O)[C@H](Cc1ccc(O)cc1)NC(=O)[C@H](CO)NC(=O)[C@H](Cc1c[nH]c2ccccc12)NC(=O)[C@H](Cc1c[nH]cn1)NC(=O)[C@@H]1CCC(=O)N1)C(=O)N[C@@H](CCCNC(=N)N)C(=O)N1CCC[C@H]1C(=O)NCC(=O)N[C@@H](CCCCN)C(=O)N[C@@H](Cc1ccccc1)C(=O)N[C@@H](C)C(=O)N[C@@H](CCCCN)C(=O)N[C@@H](Cc1ccccc1)C(=O)N[C@@H](C)C(=O)N[C@@H](CCCCN)C(=O)N[C@@H](CCCCN)C(=O)N[C@@H](Cc1ccccc1)C(=O)N[C@@H](C)C(=O)N[C@@H](CCCCN)C(=O)N[C@@H](Cc1ccccc1)C(=O)N[C@@H](C)C(=O)N[C@@H](CCCCN)C(=O)N[C@@H](CCCCN)C(=O)N[C@@H](Cc1ccccc1)C(=O)N[C@@H](C)C(=O)N[C@@H](CCCCN)C(=O)O [EP-100] (HELM PEPTIDE1{[Glp].H.W.S.Y.G.L.R.P.G.K.F.A.K.F.A.K.K.F.A.K.F.A.K.K.F.A.K}$$$$V2.0; C-terminus assumed)
[1]; 0.6-40 mg/m^2, data highly variable
  increase in C max with dose: slightly greater than dose proportional
[1]; EP-100 given over 30 min IV
  time at which C max was reached: 20 to 40 min
[1]; EP-100 given over 60 min IV
  time at which C max was reached: 40 to 60 min
[1]; doses of 5.2 mg/m^2 and above
  plasma concentrations versus concentrations active in vitro: reached the predicted “therapeutic” concentrations
[1]; doses of 7.8 to 17 mg/m2 IV
  volume of distribution, V z: 2,400 to 2,666 mL
[1]; human, plasma, 0.6 mg/m2, dose 0.6 mg/m^2 IV
  clearance: 299 mL/min
[1]; human, plasma, 0.6 mg/m2, dose 0.6 mg/m^2 IV, read-out: volume of distribution, V z
  Vd: 4.35 L
[1]; human, plasma, 5.2 mg/m2, dose 5.2 mg/m^2 IV
  clearance: 143 mL/min
[1]; human, plasma, 5.2 mg/m2, dose 5.2 mg/m^2 IV, read-out: volume of distribution, V z
  Vd: 1.56 L
[1]; human, plasma, 7.8 mg/m2, dose 7.8 mg/m^2 IV
  clearance: 223 mL/min
[1]; human, plasma, 11.7 mg/m2, dose 11.7 mg/m^2 IV
  clearance: 222 mL/min
[1]; human, plasma, 17 mg/m2, dose 17 mg/m^2 IV
  clearance: 110 mL/min
[1]; human, plasma, 40 mg/m2, highest dose level tested (40 mg/m^2), IV infusion, mean ± SD, read-out: mean AUC0–∞ (converted)
  AUC(0-inf): 5430 ng·h/mL
[1]; human, plasma, 40 mg/m2, highest dose level tested (40 mg/m^2), IV infusion, mean ± SD, read-out: mean C max
  Cmax: 4760 ng/mL
[1]; human, plasma, 40 mg/m2, patients, IV infusion, highest dose tested (40 mg/m^2), read-out: terminal half-life
  half-life: ~15 min
[1]; human, plasma, doses of 7.8 to 17 mg/m2 IV, read-out: volume of distribution, V z per body weight
  Vd: ~0.06 L/kg
[2]; one breast cancer patient, dose level 7.8 mg/m^2, FSH 127–15 U/L
  reduction from baseline FSH: 88%
[2]; one breast cancer patient, dose level 7.8 mg/m^2, LH 24–1 U/L
  LH reduction: 96%
[2]; patients
  effect on other pituitary hormones (ACTH and TSH): not affected
[2]; second breast cancer patient, 11.7 mg/m^2, FSH 21–4 U/L
  FSH decrease: 81%
[2]; third breast cancer patient, 26 mg/m^2, FSH 27–4 U/L
  FSH decrease: 85%
[2]; third breast cancer patient, 26 mg/m^2, LH 27–1.3 U/L
  LH decrease: 95%
[2]; three patients of 37, dose levels 11.7 and 26 mg/m^2, all breast cancer
  patients with sustained decreases in LH and FSH: 8%
[3]
  antibodies to EP-100 (ADA): not detected
[4]; 37 patients, EP-100 single agent
  objective tumor responses (RECIST version 1.1): No complete or partial tumor responses; also recorded: No objective tumor responses
[4]; patients
  treatment-related change in tumor biomarkers (CA-125 or PSA) or CTC values: no treatment-related decreases
[4]; seven of 37 patients, EP-100 single agent
  clinical benefit: patients with stable disease for 16 weeks or longer: 19%
[5]; in vitro, low micromolar concentrations
  release of cell-death proteases from cells: released from cells within minutes
[5]; in vitro
  incubation time to complete cell lysis: 1 h
[5]; various human cancer cell lines from solid tumors and hematological malignancies expressing the LHRH receptor, ref Esperance data on file, 37
  in vitro activity level: sub-micromolar
[6]
  in vivo activity: decreased CA-125 levels and tumor regression
[7]
  effect of combination with pgp substrates (doxorubicin, paclitaxel, vinorelbine, vincristine) and non-pgp substrates (cisplatinum, 5-fluorouracil): reversion of drug resistance and potentiation of toxicity
[8]
  tolerability of combination EP-100 with paclitaxel: well tolerated
